# Measured values from article PMC9172550, “Novel derivatives of eugenol as potent anti-inflammatory agents via PPARγ agonism: rational design, synthesis, analysis, PPARγ protein binding assay and computational studies” (RSC Advances, 2022).
# Tests used:
# [1] = biological target: egg albumin (Gallus gallus, UniProt P01012); test: Albumin denaturation assay (in vitro anti-inflammatory activity); design: species or system hen; conditions: means ± SD, n = 3, read-out: percentage inhibition of albumin denaturation
# Description: In this assay egg albumin is used as protein. Protein denaturation is achieved by keeping the reaction mixture at 70 °C in a water bath for 10 minutes.
# The reaction mixture containing 0.2 ml of egg albumin (from fresh hen's eggs), 2.8 ml of phosphate-buffered saline (pH 6.4), and were mixed with 2 ml of the synthesized compounds in varying concentrations. Then the samples were incubated at 37 °C for 20 min and then heated to 70 °C for 20 min. After cooling the samples, the turbidity was measured spectrophotometrically at 660 nm. […] The following formula was used to calculate the percentage inhibition of protein denaturation. [drawing 5]
# [2] = biological target: T1, PPARγ LBD protein (Homo sapiens, UniProt P37231); test: LanthaScreen TR-FRET competitive ligand displacement (PPARγ protein binding) assay; conditions: for IC50: TR-FRET PPARγ binding, tracer displacement
# T1 construct: 1 nM 6xHis-PPAR LBD protein
# T1 sequence (P37231 238-503 limits assumed): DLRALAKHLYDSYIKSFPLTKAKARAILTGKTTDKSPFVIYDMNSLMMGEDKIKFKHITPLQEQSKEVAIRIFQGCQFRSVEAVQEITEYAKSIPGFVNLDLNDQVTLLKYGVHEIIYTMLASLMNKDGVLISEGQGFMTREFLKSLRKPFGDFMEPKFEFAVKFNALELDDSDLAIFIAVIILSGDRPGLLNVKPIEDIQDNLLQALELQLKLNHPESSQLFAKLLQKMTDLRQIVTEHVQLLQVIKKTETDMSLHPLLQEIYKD
# Description: Based on time-resolved fluorescence resonance energy transfer (TR-FRET), the nuclear receptor competitive binding assay was utilized to identify PPARγ ligands. […] The tracer is displaced from PPARγ-LBD by a chemical under test, resulting in a decrease in the FRET signal and a low TR-FRET ratio (Fig. 8).
# We performed a time-resolved fluorescence resonance energy transfer (TR-FRET) assay using a black flat bottom 384-well plate and a buffer containing 20 mM potassium phosphate (pH 7.4), 0.5 mM EDTA, 50 mM KCl, and 0.01% Tween-20, 5 mM TCEP. For the TR-FRET coregulator interaction assay, each well contained 400 nM FITC-labeled TRAP220 or NCoR1 peptides, 1 nM LanthaScreen Elite Tb-anti-His Antibody, 4 nM 6xHis-PPARγ LBD protein and 400 nM peptide in TR-FRET buffer in 22.5 μL total volume per well. Each well ([…] per well) included 1 nM 6xHis-PPAR LBD protein, 1 nM LanthaScreen Elite Tb-anti-His Antibody, and 5 nM Fluormone Pan-PPAR Green tracer ligand in TR-FRET buffer for the ligand displacement experiment. Ligand stocks were made by serial dilution in DMSO, then added to wells in triplicate to a final DMSO concentration of 1%, then incubated at room temperature for 1 hour, and read using a BioTek Synergy Neo multimode plate reader. The Tb donor was stimulated at 340 nm, its fluorescence emission was measured at 490 nm, and the FITC emission of the acceptor was detected at 520 nm. The signal at 520 nm/490 nm was used to compute the TR-FRET ratio.[37,38]
# egg albumin, sequence (P01012 2-386): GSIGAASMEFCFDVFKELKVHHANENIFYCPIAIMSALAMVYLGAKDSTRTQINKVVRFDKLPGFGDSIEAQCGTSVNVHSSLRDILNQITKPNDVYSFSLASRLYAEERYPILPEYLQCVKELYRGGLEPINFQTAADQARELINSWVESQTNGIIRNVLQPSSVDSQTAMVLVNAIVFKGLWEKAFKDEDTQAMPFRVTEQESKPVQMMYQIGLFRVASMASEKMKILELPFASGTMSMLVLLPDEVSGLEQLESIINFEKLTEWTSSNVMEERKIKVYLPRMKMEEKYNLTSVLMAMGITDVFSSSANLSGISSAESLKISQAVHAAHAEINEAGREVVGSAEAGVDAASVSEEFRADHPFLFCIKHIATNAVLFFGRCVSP
SMILES,inhibition at 6.25 µM [1] [%],inhibition at 12.5 µM [1] [%],inhibition at 25 µM [1] [%],inhibition at 50 µM [1] [%],inhibition at 150 µM [1] [%],inhibition at 200 µM [1] [%],inhibition at 400 µM [1] [%],IC50 [2] [µM],Raw Data (RLU) ([2]; TR-FRET signal at 0.0000512 µM),Raw Data - Background (RLU) ([2]; TR-FRET signal at 0.0000512 µM),Raw Data (RLU) ([2]; TR-FRET signal at 0.000256 µM),Raw Data - Background (RLU) ([2]; TR-FRET signal at 0.000256 µM),Raw Data (RLU) ([2]; TR-FRET signal at 0.00128 µM),Raw Data - Background (RLU) ([2]; TR-FRET signal at 0.00128 µM),Raw Data (RLU) ([2]; TR-FRET signal at 0.0064 µM),Raw Data - Background (RLU) ([2]; TR-FRET signal at 0.0064 µM),Raw Data (RLU) ([2]; TR-FRET signal at 0.032 µM),Raw Data - Background (RLU) ([2]; TR-FRET signal at 0.032 µM),Raw Data (RLU) ([2]; TR-FRET signal at 0.16 µM),Raw Data - Background (RLU) ([2]; TR-FRET signal at 0.16 µM),other results
"O=C(O)Cc1ccccc1Nc1c(Cl)cccc1Cl [Standard diclofenac, Diclofenac sodium, reference compound]",10 ± 0.463,15.7 ± 0.429,27 ± 0.336,38.5 ± 0.468,48.3 ± 3.14,60.9 ± 0.223,66.29 ± 0.375,,,,,,,,,,,,,,
"C=CCc1ccc(OCC(=O)Nc2cccc(C)c2)c(OC)c1 [Compound 1D, 2-(4-Allyl-2-methoxyphenoxy)-N-m-tolylacetamide]",2.66 ± 1.12,7.88 ± 3.8,11.1 ± 3.65,15.9 ± 7.79,22.4 ± 5.43,29.6 ± 3.94,36.7 ± 4.77,15,1.92,1.69,1.95,1.72,1.85,1.61,2.07,1.83,1.93,1.70,1.87,1.64,Raw Data (RLU) ([2]; TR-FRET signal at 0.8 µM): 1.91 RLU; Raw Data - Background (RLU) ([2]; TR-FRET signal at 0.8 µM): 1.68 RLU; Raw Data (RLU) ([2]; TR-FRET signal at 4 µM): 1.91 RLU; Raw Data - Background (RLU) ([2]; TR-FRET signal at 4 µM): 1.67 RLU; Raw Data (RLU) ([2]; TR-FRET signal at 20 µM): 1.91 RLU; Raw Data - Background (RLU) ([2]; TR-FRET signal at 20 µM): 1.67 RLU; Raw Data (RLU) ([2]; TR-FRET signal at 100 µM): 1.40 RLU; Raw Data - Background (RLU) ([2]; TR-FRET signal at 100 µM): 1.17 RLU
"C=CCc1ccc(OCC(=O)Nc2ccc(Cl)cc2)c(OC)c1 [Compound 1C, 2-(4-Allyl-2-methoxyphenoxy)-N-(4-chlorophenyl) acetamide]",5.23 ± 4.12,9.14 ± 0.615,15.7 ± 1.59,22.6 ± 1.98,38.5 ± 1.1,48.1 ± 1.14,56.9 ± 1.8,10.7,2.069,1.834,1.896,1.660,1.907,1.672,1.934,1.699,1.989,1.754,1.921,1.686,Raw Data (RLU) ([2]; TR-FRET signal at 0.8 µM): 1.922 RLU; Raw Data - Background (RLU) ([2]; TR-FRET signal at 0.8 µM): 1.687 RLU; Raw Data (RLU) ([2]; TR-FRET signal at 4 µM): 1.761 RLU; Raw Data - Background (RLU) ([2]; TR-FRET signal at 4 µM): 1.526 RLU; Raw Data (RLU) ([2]; TR-FRET signal at 20 µM): 1.058 RLU; Raw Data - Background (RLU) ([2]; TR-FRET signal at 20 µM): 0.823 RLU; Raw Data (RLU) ([2]; TR-FRET signal at 100 µM): 0.951 RLU; Raw Data - Background (RLU) ([2]; TR-FRET signal at 100 µM): 0.716 RLU
"C=CCc1ccc(OCC(=O)Nc2ccc(OC)cc2)c(OC)c1 [Compound 1B, 2-(4-Allyl-2-methoxyphenoxy)-N-(4-methoxyphenyl) acetamide]",1.71 ± 0.344,4.57 ± 0.54,6.82 ± 1.37,8.59 ± 0.205,9.45 ± 0.681,16.4 ± 5.09,30.7 ± 4.44,41.5,2.024,1.789,1.990,1.755,1.965,1.73,1.913,1.678,1.913,1.678,1.960,1.724,Raw Data (RLU) ([2]; TR-FRET signal at 0.8 µM): 2.002 RLU; Raw Data - Background (RLU) ([2]; TR-FRET signal at 0.8 µM): 1.767 RLU; Raw Data (RLU) ([2]; TR-FRET signal at 4 µM): 1.855 RLU; Raw Data - Background (RLU) ([2]; TR-FRET signal at 4 µM): 1.619 RLU; Raw Data (RLU) ([2]; TR-FRET signal at 20 µM): 1.280 RLU; Raw Data - Background (RLU) ([2]; TR-FRET signal at 20 µM): 1.045 RLU; Raw Data (RLU) ([2]; TR-FRET signal at 100 µM): 0.534 RLU; Raw Data - Background (RLU) ([2]; TR-FRET signal at 100 µM): 0.2989 RLU
"C=CCc1ccc(OCC(=O)Nc2ccc(C)cc2)c(OC)c1 [Compound 1A, 2-(4-Allyl-2-methoxyphenoxy)-N-p-tolylacetamide]",2.42 ± 0.165,5.7 ± 3.19,8.72 ± 3.93,13.3 ± 7.51,17.2 ± 8.71,25.4 ± 2.87,32 ± 2.95,13.5,2.07,1.84,2.10,1.862,2.02,1.787,1.92,1.688,2.00,1.76,1.95,1.716,Raw Data (RLU) ([2]; TR-FRET signal at 0.8 µM): 1.99 RLU; Raw Data - Background (RLU) ([2]; TR-FRET signal at 0.8 µM): 1.754 RLU; Raw Data (RLU) ([2]; TR-FRET signal at 4 µM): 1.57 RLU; Raw Data - Background (RLU) ([2]; TR-FRET signal at 4 µM): 1.332 RLU; Raw Data (RLU) ([2]; TR-FRET signal at 20 µM): 1.07 RLU; Raw Data - Background (RLU) ([2]; TR-FRET signal at 20 µM): 0.8399 RLU; Raw Data (RLU) ([2]; TR-FRET signal at 100 µM): 0.54 RLU; Raw Data - Background (RLU) ([2]; TR-FRET signal at 100 µM): 0.3006 RLU
